Experimental data as given in the supplement of paper PMC10307832.

Legend:
Test in all cases: relative viability (nuclei count vs DMSO), 5 days (fraction); higher = more cells survive
VX-11e + Vorinostat = compound: CC1=CN=C(N=C1C2=CNC(=C2)C(=O)N[C@H](CO)C3=CC(=CC=C3)Cl)NC4=C(C=C(C=C4)F)Cl [VX-11e] + O=C(CCCCCCC(=O)Nc1ccccc1)NO [Vorinostat] (partner 1 µM)
Summary of the method: (§1)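 A single step with final 0.05% Triton X-100, 1% formaldehyde and 1 ug/ml Hoechst fixed the cells and stained nuclei 5 days after treatment. Lung cancer cell lines in 1536-well plates had been treated by pin tool the day after seeding with one drug alone or a fixed anchor-drug dose plus five library-drug doses (not always all listed) in √10 steps, and nuclei were counted on 4× images. Relative viability is the ratio of nuclei in treated wells to nuclei in vehicle wells, taken as the median of duplicate plates.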

VX-11e + Crizotinib = compound: CC1=CN=C(N=C1C2=CNC(=C2)C(=O)N[C@H](CO)C3=CC(=CC=C3)Cl)NC4=C(C=C(C=C4)F)Cl [VX-11e] + C[C@@H](Oc1cc(-c2cnn(C3CCNCC3)c2)cnc1N)c1c(Cl)ccc(F)c1Cl [Crizotinib] (partner 1 µM)
Summary of the method: as §1

VX-11e + AZD7762 = compound: CC1=CN=C(N=C1C2=CNC(=C2)C(=O)N[C@H](CO)C3=CC(=CC=C3)Cl)NC4=C(C=C(C=C4)F)Cl [VX-11e] + NC(=O)Nc1cc(-c2cccc(F)c2)sc1C(=O)N[C@H]1CCCNC1 [AZD7762] (partner 0.2 µM)
Summary of the method: as §1

VX-11e + Palbociclib = compound: CC1=CN=C(N=C1C2=CNC(=C2)C(=O)N[C@H](CO)C3=CC(=CC=C3)Cl)NC4=C(C=C(C=C4)F)Cl [VX-11e] + CC(=O)c1c(C)c2cnc(Nc3ccc(N4CCNCC4)cn3)nc2n(C2CCCC2)c1=O [Palbociclib] (partner 0.5 µM)
Summary of the method: as §1

Cell Line	relative viability (VX-11e + Vorinostat; first compound 0.1265 µM)	relative viability (VX-11e + Vorinostat; first compound 0.4 µM)	relative viability (VX-11e + Vorinostat; first compound 1.265 µM)	relative viability (VX-11e + Vorinostat; first compound 4 µM)	relative viability (VX-11e + Crizotinib; first compound 0.1265 µM)	relative viability (VX-11e + Crizotinib; first compound 1.265 µM)	relative viability (VX-11e + Crizotinib; first compound 4 µM)	relative viability (VX-11e + AZD7762; first compound 0.1265 µM)	relative viability (VX-11e + AZD7762; first compound 0.4 µM)	relative viability (VX-11e + AZD7762; first compound 1.265 µM)	relative viability (VX-11e + AZD7762; first compound 4 µM)	relative viability (VX-11e + Palbociclib; first compound 0.1265 µM)	relative viability (VX-11e + Palbociclib; first compound 0.4 µM)	relative viability (VX-11e + Palbociclib; first compound 1.265 µM)	relative viability (VX-11e + Palbociclib; first compound 4 µM)	relative viability (VX-11e + Vorinostat; first compound 0.04 µM)	relative viability (VX-11e + Crizotinib; first compound 0.04 µM)	relative viability (VX-11e + Crizotinib; first compound 0.4 µM)	relative viability (VX-11e + AZD7762; first compound 0.04 µM)	relative viability (VX-11e + Palbociclib; first compound 0.04 µM)
NCI-H1993	0.819	0.505	0.47	0.623	0.804	0.752	0.647	0.884	0.687	0.453	0.48	0.708	0.607	0.559	0.503					
NCI-H2085	0.707	0.689	0.449	0.584	0.817	0.714	0.619	0.975	0.829	0.887	0.642	0.437	0.457	0.404	0.366	0.826	0.88	0.746	0.853	0.498
NCI-H2087	0.644		0.495	0.239	0.809	1.07	0.502	1.37		1.24	0.583	0.244		0.176	0.176	0.944	1.03	0.944	1.51	0.203
NCI-H2126	0.686	0.352	0.474	0.52	1.03	1.02	0.901	0.972	0.795	1.01	0.861	0.379	0.359	0.353	0.318	0.512		0.987	0.844	0.331
NCI-H2170	0.75	0.462	0.67	0.778	1.04	1.03	1.1	0.89	0.298	0.632	0.821	0.386	0.381	0.339	0.424	0.835	1.18	1.23	0.758	0.354
NCI-H2347	0.688	0.5	0.349	0.316	0.831	0.517	0.406	0.722	0.551	0.501	0.375	0.405	0.481	0.398	0.379	0.514	0.677	0.605	0.834	0.475
NCI-H2405	0.866	1.22	0.918	0.565	0.805	0.766	0.505	0.729	0.625	0.671	0.412	0.506	0.385	0.513	0.328	0.993	0.892	0.821	0.835	0.579
NCI-H3122	0.885	0.684	0.987	0.589	0.288	0.35	0.226	1.13	0.353	0.933	0.577	0.164	0.168	0.166	0.135	0.85	0.302	0.275	1.13	0.211
PC-3 [JPC-3]	0.708	1.01	0.646	0.755	0.963	1.07	0.845	0.653	0.685	0.701	0.711	0.558	0.519	0.624	0.546	0.752	0.993	0.93	0.697	0.565
PC-14	0.692	0.355	0.58	0.302	0.916	0.878	0.506	0.339	0.274	0.278	0.256	0.497	0.374	0.252	0.19	0.747	0.993	0.861	0.341	0.551
RERF-LC-KJ	0.653	0.586	0.594	0.623	0.834	0.863	0.753	0.876	0.498	0.903	0.839	1.02	0.981	0.952	0.908	0.7	0.899	0.881	0.572	1.11
